The values below are quoted from earlier work in US6759057B1, “Methods and compositions using liposome-encapsulated non-steroidal anti-inflammatory drugs” (The Liposome Company, Inc., priority 1986, dated 2004).

The test system of this data set is rat stomach mucosa. The note with it: rats dosed with Prostaglandin E2.

As for `CCCCC[C@H](O)/C=C/[C@H]1[C@H](O)CC(=O)[C@@H]1C/C=C\CCCC(=O)O` [Prostaglandin E2], the “increase in the major gastric surface protective surfactant” value is on record as 2-6 fold.
